Among the data in ChEMBL document CHEMBL5038612, “Discovery of a 2,4-diphenyl-5,6-dihydrobenzo(h)quinolin-8-amine derivative as a novel DNA intercalating topoisomerase IIα poison” (Eur J Med Chem, 2021) are IC50, inhibition and Activity values, retold here.

Counter-ions that a name gives are not always drawn. Calls of active or inactive are those of the source. No cut-off for these calls is given here.

One test has as its system HCT-15. Description: Antiproliferative activity against human HCT-15 cells assessed as reduction in cell viability after 48 hrs by Ez-cytoX based microplate reader method. It is filed as functional. To be noted: HCT-15, 48 h.
Another test relates to HeLa. The test can be described thus: Antiproliferative activity against human HeLa cells assessed as reduction in cell viability after 48 hrs by Ez-cytoX based microplate reader method. In kind it is functional.
In test [1] the target is T1, DNA topoisomerase 2-alpha (Homo sapiens, UniProt P11388). The test can be described thus: Inhibition of human topoisomerase 2 alpha mediated supercoiled pBR322 DNA relaxation at 100 uM by ethidium bromide staining based agarose gel electrophoresis relative to control.
The subject of another test is LNCaP-Clone-FGC. The test can be described thus: Antiproliferative activity against human LNCaP-Clone-FGC cells assessed as reduction in cell viability after 48 hrs by Ez-cytoX based microplate reader method. It is filed as functional.
Test [2] has as its target DNA topoisomerase 2-beta (Homo sapiens) (UniProt Q02880). Description: Inhibition of human topoisomerase 2 beta mediated supercoiled pBR322 DNA relaxation at 5 uM by ethidium bromide staining based agarose gel electrophoresis relative to control.
The test system of test [3] is Calf thymus DNA. The test can be described thus: Binding affinity to calf thymus DNA assessed as DNA intercalation at 10 to 100 uM by fluorescence based EtBr-displacement assay. It is filed as nucleic-acid assay. Conditions: Bos taurus; dose 10-100 µM.
In test [4] the target is T1, DNA topoisomerase 2-alpha. Description: Inhibition of human topoisomerase 2 alpha mediated supercoiled pBR322 DNA relaxation at 2 uM by ethidium bromide staining based agarose gel electrophoresis relative to control.
The target of test [5] is T1, DNA topoisomerase 2-alpha. Description: Inhibition of human topoisomerase 2 alpha mediated supercoiled pBR322 DNA relaxation by ethidium bromide staining based agarose gel electrophoresis.
The target of test [6] is DNA topoisomerase 2-beta (Homo sapiens) (UniProt Q02880). The test can be described thus: Inhibition of human topoisomerase 2 beta mediated supercoiled pBR322 DNA relaxation at 2 uM by ethidium bromide staining based agarose gel electrophoresis relative to control.
Test [7] has as its target T1, DNA topoisomerase 2-alpha. Description: Inhibition of human topoisomerase 2 alpha mediated supercoiled pBR322 DNA relaxation at 5 uM by ethidium bromide staining based agarose gel electrophoresis relative to control.
A further test concerns SK-OV-3. The test can be described thus: Antiproliferative activity against human SK-OV-3 cells assessed as reduction in cell viability after 48 hrs by Ez-cytoX based microplate reader method. It is filed as functional. To be noted: SK-OV-3, 48 h.
In a further test the test system is BT-474. The test can be described thus: Antiproliferative activity against human BT-474 cells assessed as reduction in cell viability after 48 hrs by Ez-cytoX based microplate reader method. Conditions: BT-474, 48 h. It is filed as functional.
In test [8] the test system is Calf thymus DNA. Description: Binding affinity to calf thymus DNA assessed as DNA intercalation at 100 uM by fluorescence based EtBr-displacement assay relative to control. It is filed as nucleic-acid assay. Conditions: Bos taurus.
Test [9] deals with T1, DNA topoisomerase 2-alpha. Description: Inhibition of human topoisomerase 2 alpha mediated supercoiled pBR322 DNA relaxation at 10 uM by ethidium bromide staining based agarose gel electrophoresis relative to control.
The target in test [10] is T1, DNA topoisomerase 2-alpha. Description: Inhibition of human topoisomerase 2 alpha mediated supercoiled pBR322 DNA relaxation at 1 uM by ethidium bromide staining based agarose gel electrophoresis relative to control.
In test [11] the target is DNA topoisomerase 2-beta (Homo sapiens) (UniProt Q02880). The test can be described thus: Inhibition of human topoisomerase 2 beta mediated supercoiled pBR322 DNA relaxation at 100 uM by ethidium bromide staining based agarose gel electrophoresis relative to control.
For a further test, the system named is LNCaP. Description: Antiproliferative activity against human LNCaP-LN3 cells assessed as reduction in cell viability after 48 hrs by Ez-cytoX based microplate reader method. In kind it is functional.
For another test, the system named is DU-145. The test can be described thus: Antiproliferative activity against human DU-145 cells assessed as reduction in cell viability after 48 hrs by Ez-cytoX based microplate reader method. In kind it is functional. To be noted: DU-145, 48 h.

DNA topoisomerase 2-beta (Homo sapiens), sequence (Q02880 whole entry): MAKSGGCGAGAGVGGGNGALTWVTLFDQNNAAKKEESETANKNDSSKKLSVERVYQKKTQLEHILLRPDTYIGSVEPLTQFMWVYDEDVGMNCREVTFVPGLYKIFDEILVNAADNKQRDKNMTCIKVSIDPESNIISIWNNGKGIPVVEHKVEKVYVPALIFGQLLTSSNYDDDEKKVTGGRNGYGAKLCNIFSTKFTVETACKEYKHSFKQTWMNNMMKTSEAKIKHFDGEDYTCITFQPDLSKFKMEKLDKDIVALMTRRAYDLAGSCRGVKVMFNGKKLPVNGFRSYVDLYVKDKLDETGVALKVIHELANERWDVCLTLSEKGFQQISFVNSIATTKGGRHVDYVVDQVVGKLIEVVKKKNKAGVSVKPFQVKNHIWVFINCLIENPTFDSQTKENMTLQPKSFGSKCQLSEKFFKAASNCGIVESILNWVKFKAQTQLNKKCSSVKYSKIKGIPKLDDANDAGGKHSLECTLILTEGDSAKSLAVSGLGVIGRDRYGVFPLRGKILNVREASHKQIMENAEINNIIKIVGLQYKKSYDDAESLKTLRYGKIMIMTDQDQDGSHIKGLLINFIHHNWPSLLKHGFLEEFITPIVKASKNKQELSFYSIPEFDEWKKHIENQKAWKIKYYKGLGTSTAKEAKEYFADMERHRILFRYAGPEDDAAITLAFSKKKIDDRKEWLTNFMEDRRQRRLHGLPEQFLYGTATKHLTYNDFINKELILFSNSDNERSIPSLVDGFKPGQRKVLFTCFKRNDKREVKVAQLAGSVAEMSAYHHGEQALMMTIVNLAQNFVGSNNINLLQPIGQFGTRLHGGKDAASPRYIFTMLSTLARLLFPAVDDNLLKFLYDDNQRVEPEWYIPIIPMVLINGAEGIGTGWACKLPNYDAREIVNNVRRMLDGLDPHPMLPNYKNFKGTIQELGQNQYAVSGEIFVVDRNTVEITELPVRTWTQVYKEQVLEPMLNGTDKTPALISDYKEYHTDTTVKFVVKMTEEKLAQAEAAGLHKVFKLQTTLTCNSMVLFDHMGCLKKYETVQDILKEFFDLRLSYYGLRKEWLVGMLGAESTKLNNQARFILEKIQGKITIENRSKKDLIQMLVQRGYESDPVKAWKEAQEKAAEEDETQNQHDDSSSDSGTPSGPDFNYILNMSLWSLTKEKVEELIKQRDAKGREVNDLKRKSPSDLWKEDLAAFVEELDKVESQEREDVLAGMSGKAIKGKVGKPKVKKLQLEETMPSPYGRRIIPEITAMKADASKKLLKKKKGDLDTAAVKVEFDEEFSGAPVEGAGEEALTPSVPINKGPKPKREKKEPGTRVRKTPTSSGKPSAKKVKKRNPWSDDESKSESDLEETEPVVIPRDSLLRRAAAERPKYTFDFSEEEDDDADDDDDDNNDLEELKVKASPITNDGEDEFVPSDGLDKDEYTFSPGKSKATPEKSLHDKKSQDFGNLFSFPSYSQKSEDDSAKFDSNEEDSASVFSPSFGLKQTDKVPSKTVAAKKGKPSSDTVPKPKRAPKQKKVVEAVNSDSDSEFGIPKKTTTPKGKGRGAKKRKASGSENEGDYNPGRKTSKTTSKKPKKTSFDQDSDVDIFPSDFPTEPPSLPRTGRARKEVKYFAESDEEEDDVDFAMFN
T1 sequence (P11388 whole entry): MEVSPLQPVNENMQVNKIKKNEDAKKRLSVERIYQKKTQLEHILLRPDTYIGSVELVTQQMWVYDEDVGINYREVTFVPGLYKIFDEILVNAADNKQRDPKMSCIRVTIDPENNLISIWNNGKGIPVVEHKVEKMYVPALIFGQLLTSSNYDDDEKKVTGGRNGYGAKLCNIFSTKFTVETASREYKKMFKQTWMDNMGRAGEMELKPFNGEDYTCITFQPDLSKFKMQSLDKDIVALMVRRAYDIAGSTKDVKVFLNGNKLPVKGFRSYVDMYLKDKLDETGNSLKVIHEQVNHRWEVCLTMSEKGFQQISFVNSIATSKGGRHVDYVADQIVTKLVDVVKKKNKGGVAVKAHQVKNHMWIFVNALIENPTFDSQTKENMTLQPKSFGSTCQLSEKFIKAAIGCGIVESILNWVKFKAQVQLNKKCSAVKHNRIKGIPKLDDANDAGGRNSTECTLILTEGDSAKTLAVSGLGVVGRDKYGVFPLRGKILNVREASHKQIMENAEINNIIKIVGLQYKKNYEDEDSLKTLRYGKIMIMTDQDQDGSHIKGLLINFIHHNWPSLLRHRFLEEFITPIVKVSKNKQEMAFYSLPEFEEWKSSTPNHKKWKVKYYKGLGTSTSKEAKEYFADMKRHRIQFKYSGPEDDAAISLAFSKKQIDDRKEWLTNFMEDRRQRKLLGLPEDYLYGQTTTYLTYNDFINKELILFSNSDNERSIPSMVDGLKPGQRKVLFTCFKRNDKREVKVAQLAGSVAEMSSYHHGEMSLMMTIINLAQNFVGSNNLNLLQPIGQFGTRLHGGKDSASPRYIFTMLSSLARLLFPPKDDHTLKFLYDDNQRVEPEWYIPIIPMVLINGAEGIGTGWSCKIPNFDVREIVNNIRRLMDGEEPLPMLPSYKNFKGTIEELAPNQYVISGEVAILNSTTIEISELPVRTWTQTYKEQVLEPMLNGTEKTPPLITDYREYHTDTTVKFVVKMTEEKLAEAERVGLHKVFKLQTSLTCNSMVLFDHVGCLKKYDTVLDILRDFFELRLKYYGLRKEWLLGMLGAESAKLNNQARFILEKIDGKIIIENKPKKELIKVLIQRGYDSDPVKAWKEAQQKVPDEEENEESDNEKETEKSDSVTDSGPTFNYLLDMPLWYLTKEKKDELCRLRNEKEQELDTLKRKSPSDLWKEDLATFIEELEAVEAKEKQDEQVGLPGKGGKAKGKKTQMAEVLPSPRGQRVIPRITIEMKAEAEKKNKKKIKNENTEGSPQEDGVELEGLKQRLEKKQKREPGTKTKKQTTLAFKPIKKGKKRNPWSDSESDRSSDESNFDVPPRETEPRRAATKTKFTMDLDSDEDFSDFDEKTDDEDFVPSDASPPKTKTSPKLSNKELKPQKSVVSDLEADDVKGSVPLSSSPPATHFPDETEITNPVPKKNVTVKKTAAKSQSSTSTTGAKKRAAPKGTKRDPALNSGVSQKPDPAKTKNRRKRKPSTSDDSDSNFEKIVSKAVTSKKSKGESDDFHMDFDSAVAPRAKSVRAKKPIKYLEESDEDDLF

Broadly, the IC50 is the concentration needed to halve the response being measured. Consider `COc1cccc2c1C(=O)c1c(O)c3c(c(O)c1C2=O)C[C@@](O)(C(=O)CO)C[C@@H]3O[C@H]1C[C@H](N)[C@H](O)[C@H](C)O1` [DOXORUBICIN HYDROCHLORIDE], for which the half-inhibitory concentration (IC50) in the test on HCT-15 worked out at 1.89 µM.
Usually inhibition stands for the percentage by which the read-out fell short of the control. For the compound `Nc1ccc2c(c1)CCc1c(-c3ccccc3)cc(-c3cccc(O)c3)nc1-2`, the values for the half-maximal inhibitory concentration (IC50) in the test on HeLa and in the test on HCT-15 were 4.05 µM and 3.3 µM, respectively. In addition, the inhibition in test [1] turned out to be 1.5%.
As to `Nc1ccc2c(c1)CCc1c(-c3cccc(F)c3)cc(-c3ccc(O)cc3)nc1-2`, the values for the half-inhibitory concentration (IC50) in the test on HeLa and in the test with HCT-15 were 5.05 µM and 1.85 µM, respectively. In test [1], the inhibition was determined as 10.5%.
The matching figures for `Nc1ccc2c(c1)CCc1c(-c3cccc(C(F)(F)F)c3)cc(-c3ccc(O)cc3)nc1-2`: 5.14 µM, 2 µM and 75%.
Taken in the same sequence, the figures for `Nc1ccc2c(c1)CCc1c(-c3ccc(OC(F)(F)F)cc3)cc(-c3cccc(O)c3)nc1-2` were 5.59 µM, 2.71 µM and 49%.
Taken in the same sequence, the figures for `Nc1ccc2c(c1)CCc1c(-c3cccc(F)c3)cc(-c3ccccc3O)nc1-2` were 8.16 µM, 2.26 µM and 1.3%.
Take `Nc1ccc2c(c1)CCc1c(-c3ccc(C(F)(F)F)cc3)cc(-c3cccc(O)c3)nc1-2`: the IC50 in the test on HeLa amounted to 4.98 µM; with HCT-15, 2.34 µM. The compound further showed an inhibition in test [1] of 72.4%.
The matching figures for `Nc1ccc2c(c1)CCc1c(-c3ccccc3)cc(-c3ccccc3O)nc1-2`: 33.2 µM, 3.47 µM and 0%.
Taken in the same sequence, the figures for `Nc1ccc2c(c1)CCc1c(-c3cccc(F)c3)cc(-c3cccc(O)c3)nc1-2` were 4.19 µM, 3.91 µM and 3.4%.
Taken in the same sequence, the figures for `Nc1ccc2c(c1)CCc1c(-c3ccccc3C(F)(F)F)cc(-c3cccc(O)c3)nc1-2` were 5.4 µM, 2.93 µM and 87.4%.
As to `COc1cc([C@@H]2c3cc4c(cc3[C@@H](O[C@@H]3O[C@@H]5CO[C@@H](C)O[C@H]5[C@H](O)[C@H]3O)[C@H]3COC(=O)[C@H]23)OCO4)cc(OC)c1O` [ETOPOSIDE], in the test with HeLa, the IC50 was 8.3 µM.
With `Nc1ccc2c(c1)CCc1c(-c3ccccc3F)cc(-c3cccc(O)c3)nc1-2`, the results for the IC50 in the test with HeLa and with HCT-15 were 5.38 µM and 1.92 µM, respectively. In [1], this compound returned an inhibition of 4.3%.
Taken in the same sequence, the figures for `Nc1ccc2c(c1)CCc1c(-c3ccccc3F)cc(-c3ccccc3O)nc1-2` were 22.8 µM, 1.11 µM and 1.2%.
The matching figures for `Nc1ccc2c(c1)CCc1c(-c3ccc(C(F)(F)F)cc3)cc(-c3ccc(O)cc3)nc1-2`: 5.54 µM, 2.73 µM and 77.8%.
The matching figures for `Nc1ccc2c(c1)CCc1c(-c3ccccc3C(F)(F)F)cc(-c3ccccc3O)nc1-2`: 6.58 µM, 1.23 µM and 29.3%.
As for `Nc1ccc2c(c1)CCc1c(-c3cccc(C(F)(F)F)c3)cc(-c3cccc(O)c3)nc1-2`, the IC50 in the test with HeLa was 4.49 µM; in the test on HCT-15 it was 2.43 µM. The inhibition in [1] was found to be 62.9%.
The matching figures for `Nc1ccc2c(c1)CCc1c(-c3cccc(OC(F)(F)F)c3)cc(-c3cccc(O)c3)nc1-2`: 4.62 µM, 1.84 µM and 60%.
On to `Nc1ccc2c(c1)CCc1c(-c3ccc(OC(F)(F)F)cc3)cc(-c3ccccc3O)nc1-2`, for which the IC50 with HeLa and with HCT-15 was over 50 µM in each case. Further, in test [1], the inhibition came to 30.2%.
On to `Nc1ccc2c(c1)CCc1c(-c3ccccc3C(F)(F)F)cc(-c3ccc(O)cc3)nc1-2`, for which the half-maximal inhibitory concentration (IC50) came to 7.18 µM with LNCaP-Clone-FGC; 5.07 µM in the test with HeLa; 3.58 µM in [5]; 1.67 µM in the test on SK-OV-3; 5.13 µM in the test on BT-474; 5.58 µM with LNCaP. In addition, the values for the IC50 with DU-145 and with HCT-15 were 1.56 µM and 1.99 µM, respectively. For the same compound, the inhibition came to 21.7% in test [2]; 81.9% in [1]; 34.4% in test [4]; 19.6% in [6]; 57% in test [7]; 66.2% in test [9]. The inhibition in [10] was 22.3%; in test [11], 82.6%. For the same compound, in the test with Calf thymus DNA [3], the Activity result was “Dose-Dependent Effect”. In addition, the outcome in the test on Calf thymus DNA [8] was inactive.
For `Nc1ccc2c(c1)CCc1c(-c3ccccc3OC(F)(F)F)cc(-c3ccccc3O)nc1-2`, the IC50 in the test on HeLa was determined as 5.46 µM; in the test on HCT-15, 2.86 µM. Further, the inhibition in test [1] stood at 70%.
Taken in the same sequence, the figures for `Nc1ccc2c(c1)CCc1c(-c3ccc(F)cc3)cc(-c3ccc(O)cc3)nc1-2` were 5.64 µM, 2.96 µM and 77.6%.
Taken in the same sequence, the figures for `Nc1ccc2c(c1)CCc1c(-c3cccc(C(F)(F)F)c3)cc(-c3ccccc3O)nc1-2` were 7.61 µM, 2.29 µM and 25.7%.
Taken in the same sequence, the figures for `Nc1ccc2c(c1)CCc1c(-c3ccc(F)cc3)cc(-c3ccccc3O)nc1-2` were over 50 µM, over 50 µM and 1.2%.
Consider `Nc1ccc2c(c1)CCc1c(-c3ccc(C(F)(F)F)cc3)cc(-c3ccccc3O)nc1-2`, for which the IC50 in the test on HeLa and with HCT-15 was over 50 µM in each case. Besides, the inhibition in test [1] turned out to be 28.8%.
As for `Nc1ccc2c(c1)CCc1c(-c3cccc(OC(F)(F)F)c3)cc(-c3ccc(O)cc3)nc1-2`, the 50% inhibitory concentration (IC50) in the test with HeLa came to 3.78 µM; with HCT-15, 1.79 µM. Besides, the inhibition in test [1] is 36.5%.
As to `Nc1ccc2c(c1)CCc1c(-c3ccccc3OC(F)(F)F)cc(-c3ccc(O)cc3)nc1-2`, the IC50 in the test on HeLa is 2.87 µM; in the test with HCT-15, 2.96 µM. In addition, in test [1], the inhibition came to 72.5%.
Taken in the same sequence, the figures for `Nc1ccc2c(c1)CCc1c(-c3ccccc3)cc(-c3ccc(O)cc3)nc1-2` were 6.55 µM, 3.82 µM and 21.7%.
Taken in the same sequence, the figures for `Nc1ccc2c(c1)CCc1c(-c3ccc(OC(F)(F)F)cc3)cc(-c3ccc(O)cc3)nc1-2` were 5.86 µM, 2.02 µM and 36.5%.
For `Nc1ccc2c(c1)CCc1c(-c3ccc(F)cc3)cc(-c3cccc(O)c3)nc1-2`, the concentration for half-maximal inhibition (IC50) turned out to be 5.18 µM with HeLa and 2.87 µM in the test with HCT-15. Further, in [1], the inhibition was 3.9%.
Taken in the same sequence, the figures for `Nc1ccc2c(c1)CCc1c(-c3ccccc3F)cc(-c3ccc(O)cc3)nc1-2` were 3.26 µM, 1.52 µM and 25.3%.
Taken in the same sequence, the figures for `Nc1ccc2c(c1)CCc1c(-c3ccccc3OC(F)(F)F)cc(-c3cccc(O)c3)nc1-2` were 3.41 µM, 5.58 µM and 62.8%.
